This is an account of results in patent US3991202A, “Imidazolium salts” (Janssen Pharmaceutica N.V., priority 1974, dated 1976).

Like-named read-outs stand apart in the source and are kept apart here.

Test in all cases: Antibacterial growth inhibition in phenol red dextrose broth
What all share (format): cell-based

The subject of experiment [1] is Staphylococcus hemolyticus. The settings on record: 168 h, Staph., tested at 100, 10, 1 μg/ml, read-out: Concentration in μ g for 100% Growth Inhibition. The protocol:
(§1) The tests on bacteria were performed on cultures on phenol red dextrose broth medium (Difco). By using decimal dilution techniques described for the tests for antifungal activity, test media containing 100 μg, 10 μg and 1 μg of imidazolium salt per milliliter of medium were obtained. The inoculum consisted of a platinum loop (5 mm diameter) from a 24 hour broth culture. Forty-eight hours after incubation, subcultures were made from each culture for the determination of antibacterial activity of the imidazolium salts. After seven days of incubation, observations were made to determine the presence or absence of bacterial growth.

Experiment [2] has as its system Escherichia coli. As to conditions: 168 h, E. coli, tested at 100, 10, 1 μg/ml, read-out: Concentration in μ g for 100% Growth Inhibition. On the procedure: as §1
Experiment [3] has as its system Salmonella pullorum gallinarum. As to conditions: Salmonella enterica, 168 h; Sp. G.; tested at 100, 10, 1 μg/ml; read-out: Concentration in μ g for 100% Growth Inhibition. On the procedure:
as §1

For experiment [4], the system named is Pseudomonas aeruginosa. As to conditions: 168 h, Ps. aer., read-out: Concentration in μ g for 100% Growth Inhibition. The protocol:
as §1

The subject of experiment [5] is Streptococcus pyogenes. The settings on record: 168 h, Strep., tested at 100, 10, 1 μg/ml, read-out: Concentration in μ g for 100% Growth Inhibition. On the procedure:
as §1

For experiment [6], the system named is Erysipelothrix insidiosa. As to conditions: Erysipelothrix rhusiopathiae, 168 h; E. ins.; tested at 100, 10, 1 μg/ml; read-out: Concentration in μ g for 100% Growth Inhibition. The protocol: as §1

Regarding `O.OC(C[n+]1ccn(CC(OCc2ccc(Cl)cc2)c2ccc(Cl)cc2Cl)c1)c1ccc(Cl)cc1.[Br-]` (stereo not drawn) [2,4(Cl)2C6H3/CH2C6H4pCl/CH2CHOHC6H4pCl, 1-[β-(p-Chlorobenzyloxy)-2,4-dichlorophenethyl]-3-(p-chloro-β-hydroxyphenethyl)imidazolium bromide hydrate], the MIC in experiment [1] amounted to 1 µg/mL; in experiment [2], 10 µg/mL; in experiment [3], 10 µg/mL; in experiment [4] (tested at 100, 10, 1 μg/ml), 100 µg/mL; in experiment [5], 1 µg/mL; in experiment [6] it was 1 µg/mL.

On to `O=C(C[n+]1ccn(CC(OCc2ccc(Cl)cc2)c2ccc(Cl)cc2Cl)c1)c1ccc(F)cc1.[Cl-]` (stereo not drawn) [2,4(Cl)2C6H3/CH2C6H4pCl/CH2COC6H4pF, 1-[2,4-Dichloro-β-(p-chlorobenzyloxy)phenethyl]-3-(p-fluorophenacyl)imidazolium chloride], for which the MIC in experiment [1] was found to be 1 µg/mL; in experiment [2], 100 µg/mL; in experiment [3], 10 µg/mL; in experiment [4] (tested at 100, 10, 1 μg/ml), 100 µg/mL; in experiment [5], 1 µg/mL; in experiment [6], 1 µg/mL.

In the case of `Fc1ccc(CC[n+]2ccn(CC(OCc3ccc(Cl)cc3Cl)c3ccc(Cl)cc3Cl)c2)cc1.O.[Br-]` (stereo not drawn) [(CH2)2C6H4pF, 1-[2,4-Dichloro-β-(2,4-dichlorobenzyloxy)phenethyl]-3-(p-fluorophenethyl)imidazolium bromide hydrate], the MIC in experiment [1] worked out at 1 µg/mL; in experiment [2], 100 µg/mL; in experiment [3], 10 µg/mL; in experiment [4] (tested at 100, 10, 1 μg/ml) it was 100 µg/mL; in experiment [5] it was 1 µg/mL; in experiment [6], 10 µg/mL.

With `COc1ccc(CC[n+]2ccn(CC(OCc3ccc(Cl)cc3Cl)c3ccc(Cl)cc3Cl)c2)cc1.[Cl-]` (stereo not drawn) [(CH2)2C6H4pOCH3, 1-[2,4-dichloro-β-(2,4-dichlorobenzyloxy)phenethyl]-3-(p-methoxyphenethyl)imidazolium chloride], the MIC in experiment [1] is 1 µg/mL; in experiment [2] it was 100 µg/mL; in experiment [3], 10 µg/mL; in experiment [4] (tested at 100, 10, 1 μg/ml), 100 µg/mL; in experiment [5] it was 1 µg/mL; in experiment [6], 1 µg/mL.

For `Clc1ccc(COC(Cn2cc[n+](CCc3ccccc3)c2)c2ccc(Cl)cc2Cl)c(Cl)c1.[Br-]` (stereo not drawn) [(CH2)2C6H5, 1-[2,4-Dichloro-β-(2,4-dichlorobenzyloxy)phenethyl]-3-phenethylimidazolium bromide], the MIC in experiment [1] came out at 1 µg/mL; in experiment [2], 10 µg/mL; in experiment [3] it was 10 µg/mL; in experiment [4] (tested at 100, 10, 1 μg/ml), 100 µg/mL; in experiment [5], 1 µg/mL; in experiment [6], 1 µg/mL.

As for `O=C(CCn1cc[n+](CC(OCc2ccc(Cl)cc2Cl)c2ccc(Cl)cc2Cl)c1)Nc1ccccc1Cl.[Cl-]` (stereo not drawn) [(CH2)2CONHC6H4oCl, 1-{2-[N-(o-Chlorophenyl)carbamoyl]ethyl}-3-[2,4-dichloro-β-(2,4-dichlorobenzyloxy)phenethyl]imidazolium chloride], the MIC in experiment [1] is 1 µg/mL; in experiment [2], 10 µg/mL; in experiment [3], 10 µg/mL; in experiment [4] (tested at 100, 10, 1 μg/ml), 100 µg/mL; in experiment [5], 1 µg/mL; in experiment [6], 1 µg/mL.

Turning to `Cc1cc(Cl)ccc1NC(=O)CCn1cc[n+](CC(OCc2ccc(Cl)cc2Cl)c2ccc(Cl)cc2Cl)c1.[Cl-]` (stereo not drawn) [(CH2)2CONHC6H32,4(CH3,Cl), 1-{2-[N-(4-chloro-o-tolyl)carbamoyl]ethyl}-3-[2,4-dichloro-β-(2,4-dichlorobenzyloxy)phenethyl]imidazolium chloride], the MIC worked out at 1 µg/mL in experiment [1]; 100 µg/mL in experiment [2]; 10 µg/mL in experiment [3]; 100 µg/mL in experiment [4] (tested at 100, 10, 1 μg/ml); 1 µg/mL in experiment [5]; 1 µg/mL in experiment [6].

For `Clc1ccc(COC(C[n+]2ccn(CCNc3ccccc3)c2)c2ccc(Cl)cc2Cl)c(Cl)c1.[Br-]` (stereo not drawn) [(CH2)2NHC6H5, 1-(2-Anilinoethyl)-3-[2,4-dichloro-β-(2,4-dichlorobenzyloxy)phenethyl]imidazolium bromide], the MIC in experiment [1] amounted to 1 µg/mL; in experiment [2], 10 µg/mL; in experiment [3], 10 µg/mL; in experiment [4] (tested at 100, 10, 1 μg/ml) it was 100 µg/mL; in experiment [5], 1 µg/mL; in experiment [6], 1 µg/mL.

As to `Clc1ccc(COC(C[n+]2ccn(CCNc3c(Cl)cccc3Cl)c2)c2ccc(Cl)cc2Cl)c(Cl)c1.O.[Br-]` (stereo not drawn) [(CH2)2NHC6H32,6(Cl)2, 1-[2-(2,6-Dichloroanilino)ethyl]-3-[2,4-dichloro-β-(2,4-dichlorobenzyloxy)phenethyl]imidazolium bromide hydrate], the MIC came to 1 µg/mL in experiment [1]; 10 µg/mL in experiment [2]; 10 µg/mL in experiment [3]; 100 µg/mL in experiment [4] (tested at 100, 10, 1 μg/ml); 1 µg/mL in experiment [5]; 1 µg/mL in experiment [6].

Consider `CCCCOC(Cn1cc[n+](CC(=O)Nc2ccc(F)cc2)c1)c1ccccc1Cl` (stereo not drawn) [C6H4oCl/nC4H9/CH2CONHC6H4pF], for which the MIC in experiment [1] is 100 µg/mL; in experiment [2], 100 µg/mL; in experiment [3], 100 µg/mL; in experiment [4] (tested at 100, 10, 1 μg/ml) it was 100 µg/mL; in experiment [5] it was 10 µg/mL; in experiment [6], 10 µg/mL.

As to `Cc1ccccc1NC(=O)C[n+]1ccn(CC(OCc2ccc(Cl)cc2)c2ccc(Cl)cc2)c1` (stereo not drawn) [C6H4pCl/CH2C6H4pCl/CH2CONHC6H4oCH3, 1-[p-Chloro-β-(p-chlorobenzyloxy)phenethyl]-3-(N-o-toylcarbamoylmethyl)imidazolium chloride], the MIC was 10 µg/mL in experiment [1]; 100 µg/mL in experiment [2]; 100 µg/mL in experiment [3]; 100 µg/mL in experiment [4] (tested at 100, 10, 1 μg/ml); 10 µg/mL in experiment [5]; 10 µg/mL in experiment [6].

Regarding `Cc1ccccc1NC(=O)C[n+]1ccn(CC(OCc2ccc(Cl)cc2Cl)c2ccc(Cl)cc2)c1` (stereo not drawn) [C6H4pCl/CH2C6H32,4(Cl)2/CH2CONHC6H4oCH3, 1-[p-Chloro-β-(2,4-dichlorobenzyloxy)phenethyl]-3-(N-o-tolylcarbamoylmethyl)imidazolium chloride hydrate], the MIC in experiment [1] stood at 100 µg/mL; in experiment [2], 100 µg/mL; in experiment [3] it was 10 µg/mL; in experiment [4] (tested at 100, 10, 1 μg/ml) it was 100 µg/mL; in experiment [5], 1 µg/mL; in experiment [6], 1 µg/mL.

For `O=C(C[n+]1ccn(CC(OCc2ccc(Cl)cc2Cl)c2ccc(Cl)cc2)c1)Nc1ccc(F)cc1` (stereo not drawn) [C6H4pCl/CH2C6H32,4(Cl)2/CH2CONHC6H4pF, 1-[p-chloro-β-(2,4-dichlorobenzyloxy)phenethyl]-3-[N-(p-fluorophenyl)carbamoyl-methyl]imidazolium chloride], the MIC in experiment [1] came to 10 µg/mL; in experiment [2] it was 10 µg/mL; in experiment [3], 10 µg/mL; in experiment [4] (tested at 100, 10, 1 μg/ml), 100 µg/mL; in experiment [5], 1 µg/mL; in experiment [6] it was 1 µg/mL.

Regarding `Clc1ccc(COC(C[n+]2ccn(Cc3ccccc3)c2)c2ccccc2)cc1.[Br-]` (stereo not drawn) [C6H5/CH2C6H4pCl/CH2C6H5, 1-Benzyl-3-[β-(p-chlorobenzyloxy)phenethyl]imidazolium bromide], the MIC in experiment [1] was 10 µg/mL; in experiment [2] it was 100 µg/mL; in experiment [3], 100 µg/mL; in experiment [4] (growth observed at 100 μg/ml), over 100 µg/mL; in experiment [5], 10 µg/mL; in experiment [6], 100 µg/mL.
